In brackets after ≈: the same amount, converted by molar mass. Blank lines part the entries; values can stand above or below the molecule they belong to.
Columns and labels:
[1] = system: Candida albicans ATCC 10231; assay: Antimicrobial microdilution / modified Richards method; assay type: cell-based; conditions: ATCC10231; Candida albicans 10231; according to the EUCAST examination; read-out: MIC (reference agent)
[2] = system: Escherichia coli ATCC 25922; assay: as above; assay type: cell-based; conditions: ATCC25922; Escherichia coli 25922; according to the EUCAST examination; read-out: MIC (reference agent)
[3] = system: Pseudomonas aeruginosa ATCC 27853; assay: as above; assay type: cell-based; conditions: ATCC27853; Pseudomonas aeruginosa 27853; according to the EUCAST examination; read-out: MIC (reference agent)
[4] = system: Enterococcus faecalis ATCC 29212; assay: as above; assay type: cell-based; conditions: Enterococcus faecalis, ATCC29212, Enterococcus faecalis 29212; according to the EUCAST examination; read-out: MIC (reference agent)
[5] = system: Staphylococcus aureus ATCC 43300; assay: as above; assay type: cell-based; conditions: ATCC43300; Staphylococcus aureus 43300; according to the EUCAST examination; read-out: MIC (reference agent)
[6] = system: Streptococcus pneumoniae ATCC 49619; assay: as above; assay type: cell-based; conditions: ATCC49619; Streptococcus pneumoniae 49619; according to the EUCAST examination; read-out: MIC (reference agent)
[7] = system: Klebsiella pneumoniae ATCC 13883; assay: as above; assay type: cell-based; conditions: ATCC13883; Klebsiella pneumoniae 13883; according to the EUCAST examination; read-out: MIC (reference agent)
AGS cell line = assay: Microscopic observation of cell and nucleus morphology, Hoechst 33342; assay type: cell-based, human; conditions: positive control, 1 µM
Procedure: Morphological changes and DNA fragmentation were examined with an Olympus IX53 inverted fluorescence microscope after staining with Hoechst 33342 according to the manufacturer’s recommendations Thermo Scientific (Waltham, MA, USA). Briefly, cells were seeded in 12-well plates with a density of 1 × 10^5 cell/mL. After overnight incubation, the test substance was added in a half-maximal inhibitory (IC50) concentration and incubated for 24, 48, and 72 h. Before microscopic observation, both adherent and floating cells were collected, centrifuged, resuspended in PBS containing 1 µg/mL Hoechst 33342 dye. After 10 min incubation in the dark, the morphology of cells and DNA were visualized using a contrast phase and a UV filter.

MIC [1]: 1 µg/mL (≈ 1.08 µM)
Structure (SMILES): C[C@@H]1[C@H](O)[C@@H](C)/C=C/C=C/C=C/C=C/C=C/C=C/C=C/[C@H](O[C@@H]2O[C@H](C)[C@@H](O)[C@H](N)[C@@H]2O)C[C@@H]2O[C@](O)(C[C@@H](O)C[C@@H](O)[C@H](O)CC[C@@H](O)C[C@@H](O)CC(=O)O[C@H]1C)C[C@H](O)[C@H]2C(=O)O [amphotericin B]

MIC [2]: 2 µg/mL (≈ 4.19 µM)
Structure (SMILES): CNC(C)C1CCC(N)C(OC2C(N)CC(N)C(OC3OCC(C)(O)C(NC)C3O)C2O)O1 (centres unmarked) [gentamicin]

MIC [3]: 1 µg/mL (≈ 2.77 µM)
MIC [4]: 4 µg/mL (≈ 11.1 µM)
MIC [5]: 1 µg/mL (≈ 2.77 µM)
MIC [6]: 0.001 µg/mL (≈ 0.00277 µM)
MIC [7]: 0.5 µg/mL (≈ 1.38 µM)
Structure (SMILES): C[C@H]1COc2c(N3CCN(C)CC3)c(F)cc3c(=O)c(C(=O)O)cn1c23 [levofloxacin]

Structure (SMILES): CN[C@@H]1C[C@H]2O[C@@](C)([C@@H]1OC)n1c3ccccc3c3c4c(c5c6ccccc6n2c5c31)C(=O)NC4 [staurosporine, reference compound]
cell and nucleus morphology (AGS cell line): Shrunken cells’ bodies and fragmented DNA

— publication PMC8071423, “A New Pyrimidine Schiff Base with Selective Activities against Enterococcus faecalis and Gastric Adenocarcinoma” (Molecules, 2021)
